Where “and” joins values, the source holds several entries; their conditions need not be identical. Equal entries are not always repeated.
Assays:
CAP-His6 = CAP-His6 (Escherichia coli, UniProt P0ACJ8); conditions: control titration with CAP (no His6 tag)
Experimental: Formation of a complex of the probe with a His6-tagged protein was detected as an increase in fluorescence anisotropy, A, arising from the increase in molecular size and corresponding decrease in rotational dynamics.
Reaction mixtures were titrated with 0-3 μM CAP-His6 (or CAP) by successive addition of 0.5-4 μl aliquots of 2-4 μM CAP-His6 (or CAP) in the same buffer. Fluorescence anisotropy was determined at the start of the titration and 5 min after each successive addition in the titration. All solutions were maintained at 25° C.
Fluorescence measurements were performed using a commercial steady-state fluorescence instrument (QM-1, PTI) equipped with T-format Glan-Thompson polarizers (PTI). […] Slit widths were 10 nm. Fluorescence emission intensities were corrected for background by subtraction of fluorescence emissions intensities for control reactions containing identical concentrations of CAP-His6 or CAP but not containing probe.
Fluorescence anisotropy, A, was calculated using: A=(IVV−GIVH)/(IVV+2GVH) where IVV and IVH are the fluorescent intensities with the excitation polarizer at a vertical position and the emission polarizers at vertical and horizontal positions, respectively, and G is the grating correction factor. […] Equilibrium dissociation constants were calculated using linear regression.

[1] = Spectroscopic properties of the fluorochromes; assay type: physicochemical
(CAP-His6)-DNA^F complex [2] = molecular target: T1, (CAP-His6)-DNA^F complex (Escherichia coli, UniProt P0ACJ8); conditions: control titration with the CAP-DNA^F complex
T1 sequence (P0ACJ8 2-210, added parts left off, one chain of several): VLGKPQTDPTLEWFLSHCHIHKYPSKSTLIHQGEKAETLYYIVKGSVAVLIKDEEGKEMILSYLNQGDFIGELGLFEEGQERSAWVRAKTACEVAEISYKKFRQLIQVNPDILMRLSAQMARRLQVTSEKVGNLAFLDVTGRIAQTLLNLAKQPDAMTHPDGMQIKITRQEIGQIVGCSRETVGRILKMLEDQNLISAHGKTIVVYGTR
Experimental: FRET assays using the probes according to the invention then were performed to verify interactions, to detect a target material, and to measure an intermolecular distance.
Reaction mixtures (200 μl, in 50 μl quartz micro-cuvettes (Starna)) contained 5 nM DNA^F and 50 nM CAP-His6 (or CAP) in buffer C. […] Fluorescence emission was determined at the start of the titration and 5 min after each successive addition in the titration. All solutions were maintained at 25° C.
Fluorescence emission intensities, F, were measured using a commercial steady-state fluorescence instrument (QM-1, PTI) equipped with T-format Glan-Thompson polarizers (PTI) set at 54.7° (“magic angle”).
Data were plotted as E vs. titrant concentration, and binding curves and equilibrium dissociation constants were calculated using non-linear regression (as described in Gunasekera, A. et al., J. Biol. Chem., 267:14,713-14,720 (1992)).

(CAP-His6)-DNA^F complex [3] = molecular target: T1, (CAP-His6)-DNA^F complex; conditions: for donor-acceptor distance, R: fluorescein on DNA^F to probe on His6 of CAP-His6

CAP-His6, sequence (P0ACJ8 2-210, added parts left off): as the sequence (P0ACJ8 2-210, added parts left off, one chain of several) above

(Ni^2+-NTA)2-Cy3
specificity (CAP-His6): > 95% | quantum yield (Q) [1]: 0.04 | λmax, em [1]: 565 nm | λmax, exc [1]: 552 nm | specificity ((CAP-His6)-DNA^F complex [2]): > 95% | donor-acceptor distance, R ((CAP-His6)-DNA^F complex [3]): 58 Å

(Ni^2+-NTA)2-Cy5
specificity (CAP-His6): > 95% | quantum yield (Q) [1]: 0.05 | λmax, em [1]: 668 nm | λmax, exc [1]: 650 nm | specificity ((CAP-His6)-DNA^F complex [2]): > 95% | efficiency of FRET at saturation, Esat ((CAP-His6)-DNA^F complex [3]; fluorescein donor on DNA^F, probe as acceptor): 0.45 and 0.25 | donor-acceptor distance, R ((CAP-His6)-DNA^F complex [3]): 53 Å

— patent US7371745B2, “Bis-transition-metal-chelate probes” (Rutgers, The State University of New Jersey, priority 2002, dated 2008)
